Values quoted from earlier work as cited in patent publication EP0721734A1, “PESTICIDE COMPOSITION” (NIPPON SODA CO., LTD., priority 1993, dated 1995).

| SMILES | water solubility |
| --- | --- |
| CCN(Cc1ccc(Cl)nc1)C(=C[N+](=O)[O-])NC [2-methylamino-2-[N-ethyl-(2-chloro-5-pyridyl)methylamino]-nitoroethylene] | up to 600 g/l |
| CCSCc1ccccc1OC(=O)NC [Ethiophencalb] | 1,900 ppm |
| CCc1cccc(C)c1N(C(=O)CCl)C(C)COC (stereo not drawn) [Metolachlor] | 530 ppm |
| CCCC(Cn1cncn1)c1ccc(Cl)cc1Cl (stereo not drawn) [Penconasole] | 70 ppm |
| CCO[PH](=O)[O-].CCO[PH](=O)[O-].CCO[PH](=O)[O-].[Al+3] [Phosethyl-Alminium] | 120 g/L |
| CC(=NC#N)N(C)Cc1ccc(Cl)nc1 [active substance-1, N^1-[(2-chloro-5-pyridyl)methyl]-N^2-cyano-N^1-methylacetamidine] | 3,700 ppm |
